Laboratory results: patent US10507210B2, “Kinase inhibitor prodrug for the treatment of cancer” (Auckland UniServices Limited, priority 2014, dated 2019)
Values belong to the compound of their own block, whether it stands above or below them.

Experiments:
[1] = system: EGFR autophosphorylation (Y1068)
Procedure: HCC827 and PC9 cell cultures are set up from log-phase passage flasks. Cells are seeded into 6-well plates at a density of 1 million cells per well and left for 48 hours under normoxic or hypoxic (1% O2) conditions. Following 3 hours of drug exposure, cells are washed in ice-cold PBS and lysed on ice for 30 minutes with radioimmunoprecipitation assay (RIPA) buffer containing sodium orthovanadate and sodium fluoride at final concentrations of 1 mM each. Cell debris is pelleted out by centrifugation (13,000 rpm for 2 minutes). Protein concentrations in each sample are determined by a bicinchoninic acid (BCA) assay. Equivalent amounts of protein (10 pig) are denatured (98° C. for 5 minutes) and loaded onto 4-20% Tris-Glycine protein gels for protein separation. Following transfer to a nitrocellulose membrane, each membrane was blocked with 5% bovine serum albumin (in Tris-buffered saline) for 1 hour. […] Excess primary antibody in each membrane was washed off with Tris-buffered saline. Secondary antibody (goat anti-rabbit) was added to each membrane at a dilution of 1:5000 for 2 hours. For protein detection, the membrane was washed in Tris-buffered saline to remove excess secondary antibody and chemiluminescent substrate added (Pierce Supersignal West Pico Chemiluminescent Substrate) for 5 minutes. The membrane was viewed using a Fujifilm LAS 4000 imager.

[2] = system: WT EGFR driven H125 xenografts; settings: mouse, in vivo
PC9 xenografts = type: in vivo; settings: erlotinib 10 mg/kg daily oral, period of dosing 21 days
Procedure: Tumors were grown to ˜400 mm^3. When tumors were 400 mm^3 mice were randomly assigned to groups A-J and treated as detailed below:
The length and width of subcutaneous tumors were measured with electronic calipers every 3 days and volume calculated according to the formula for a prolate ellipsoid (π/6×length×width×width). Body weight was recorded every 3 days or prior to dosing. All other clinical signs were recorded.

FaDu cells [3] = assay: FaDu anti-proliferative assay, five day continuous aerobic exposure; type: cell-based, human
Procedure: (§1) FaDu cells were grown in αMEM culture medium supplemented with 5% FBS, without routine use of antibiotics (P/S). Cultures were re-established from authenticated frozen stocks in liquid nitrogen at either >24 passages or >90 days in culture (whichever came first). The frozen cell stocks were confirmed to be free of mycoplasma using a PCR-ELIZA kit (Roche Diagnostics GmbH, Mannheim, Germany).
Cells were then treated with ten serial dilutions (3-fold) of each test compound. Cells were left to grow in a humidified incubator (5% CO2, 37° C.) for 5 days. Cells were then fixed with 40% trichloroacetic acid for 1 h at 4° C. Cells were then stained for Sulforhodamine B (SRB) expression. Cell density was determined by using the Biotek ELx808 Absorbance Microplate Reader.

HCC827 tumor = assay: HCC827 xenograft growth delay; type: in vivo, mice; settings: Erlotinib 10 mg/kg Qdx21 p.o.
Procedure: (§2) HCC827 and PC9 human non-small cell lung cancer (NSCLC) cells were prepared in medium. […] HCC827 tumors were recruited at ˜200 mm^3 and PC9 tumors were recruited at ˜400 mm^3. When the tumors reached the desired volumes, the mice were randomly assigned to groups A-E and treated as detailed in Table 1 below:
(§3) Body weight was recorded every 3 days or prior to dosing and the length and width of subcutaneous tumors were measured with electronic calipers every 3 days and volume calculated according to the formula for a prolate ellipsoid (π/6×length×width×width). All other clinical signs were recorded.

FaDu cells [4] = assay: FaDu anti-proliferative assay, oxic vs anoxic 24 h exposure; type: cell-based, human
Procedure: as §1
Monolayers of FaDu cells were harvested by trypsinisation and counted using a hemocytometer. For the oxic assays, cells were seeded (1500 cells/well) in 96 well plates and allowed to settle for 2 hours in a humidified incubator (37 C/5% CO2). Cells were then treated with ten serial dilutions (3-fold) of each test compound for 24 hours. For the anoxic plates, all supplies were pre-equilibrated for at least 72 hours in a H2/palladium-catalyst anaerobic chamber (Bactron, Shellab) to remove any residual oxygen. On the experiment day, cells were centrifuged (1000 rpm, 5 min) to pellet cells. The media was aspirated. The pellet was then taken into the anaerobic chamber and diluted in anoxia-equilibrated media (αMEM culture media, 5% FCS, 0.2 mmol/L 2′-deoxycytidine, 10 mmol/L glucose) to achieve the appropriate cell density. Cells were seeded in identical conditions to the oxic plates. Once seeded, cells were left to settle in a humidified incubator (37 C) within the anaerobic chamber for 2 hours. Anoxic plates were similarly treated with ten serial dilutions (3-fold) of each test compound. Anoxic plates were removed from the anaerobic chamber four hours after drug addition, and placed into a humidified incubator (37 C/5% CO2) for a further 20 hours. After a total of 24 hours of drug exposure, both the oxic and anoxic plates were washed three times in fresh media (αMEM+5% FCS+P/S). Cells were left to grow for a total of 5 days. After which, cells were fixed with 40% trichloroacetic acid for 1 hour at 4° C. Plates were then stained for Sulforhodamine B (SRB) expression. Cell density was determined by using the Biotek ELx808 Absorbance Microplate Reader. […]

in vivo [5] = settings: NIH-III nude, mouse, blood, po, 10 mg/kg
[6] = system: WT EGFR expressing A431 xenograft; assay: A431 xenograft antitumor activity; type: in vivo, mice; settings: daily oral
PC9 tumor = assay: PC9 xenograft growth delay; type: in vivo, mice
Procedure: as §2, §3

EGFR signalling = assay: Hypoxia preconditioning and TH-4000E sensitivity in FaDu cells; type: cell-based, human; settings: 48 h at 0.1% O2 or 21% O2
Procedure: FaDu cells were seeded (500 k per well) in 6 well plates under both 0.1% O2 and 21% O2 for 48 hours. After 48 h of hypoxia preconditioning, cells were incubated with various concentrations of TH-4000E for 1 h.
After the designated period of anoxic exposure, cells were washed once in ice-cold PBS. […] After clarification, a BCA assay was performed to determine the protein concentration of the samples. Absorbance readings were performed at 550 nm.
Cellular lysates were resolved by gel electrophoresis and immunoblotted for various members of the EGFR signaling axis. Each loading volume included 10 μg of protein and 25% LDS sample buffer (Life Technologies #NP0007). Samples were loaded onto NuPAGE 4-12% Bis-Tris 15 well gels (Life Technologies #NP0336) and run in MES running buffer (Life Technologies #NP0002) for approximately 2 h's at 120V or until the samples had run off the gel (whichever came first). Samples were then transferred (Transfer buffer: 25 mM Tris, 192 mM glycine, 20% methanol) for 80 mins at 100V onto nitrocellulose membranes. Blots were blocked in 5% BSA or 5% phosphoblocker (CellBiolabs #AKR-104) in TBS-T for at least 1 h. Briefly, blots were incubated with primary antibodies overnight at 4° C. After three 5 min washes in TBS-T, blots were then incubated with the appropriate HRP-conjugated secondary antibody for at least 2 hours at room temperature. […]

pERK = assay: FaDu target modulation Western blot, pERK; settings: 1 h drug, EGF 50 ng/mL 15 min
[7] = 15 mg/kg TH-4000, tumor
Procedure: (§4) Mice were inoculated with PC-9 cells (˜8×10^6 cells per mouse, 42 mice in total). […] The whole tumors were snap frozen (with liquid nitrogen) and bio-pulverised. The tumors were measured every day until collection to correlate the growth kinetics of the tumor to target shutdown.
(§5) For LC-MS/MS, 4 volumes of ice cold acetonitrile (containing 0.5 μM of D6-TH-4000 & TH-4000E) were added to the tumor samples. Samples were spun at 13,000 rpm for 5 min. and 40 μL of the supernatant was taken. To the supernant, 80 μL of 0.01% FA-Water was added and the sample was mixed. 10 μL of this sample was injected for analysis. […] The mass spectrometer was operated in electrospray positive ionization mode using multiple reaction monitoring (MRM). Agilent MassHunter software (v.4.04.00) was used for data acquisition and chromatographic peak integration.

pEGFR (Y1068) = pEGFR (Y1068) (Homo sapiens, UniProt P00533); assay: FaDu target modulation Western blot, pEGFR
in vivo [8] = settings: NIH-III, mouse, plasma, ip, 15 mg/kg; for Cmax: 15 mg/kg TH-4000 ip, ± SE
Procedure: as §4, §5

pAkt = assay: FaDu target modulation Western blot, pAkt; settings: 1 h drug, EGF 50 ng/mL 15 min
[9] = system: EGFR pathway signal transduction; assay: FaDu target modulation, EGFR pathway relative dose potency

Structure (SMILES): C=CC(=O)Nc1cc(Nc2nccc(-c3cn(C)c4ccccc34)n2)c(OC)cc1N(C)CCN(C)C [AZD9291]
effect of hypoxia on inhibition of EGFR phosphorylation [1]: resistance to AZD9291

Day of average weight loss nadir [2]: [day 9]
Structure (SMILES): CN(C)C/C=C/C(=O)Nc1cc2c(Nc3ccc(F)c(Cl)c3)ncnc2cc1O[C@H]1CCOC1 [Afatinib]

Structure (SMILES): C#Cc1cccc(Nc2ncnc3cc(OCCOC)c(OCCOC)cc23)c1 [Erlotinib]
tumor response (PC9 xenografts): stable disease | IC50 difference, erlotinib superior to cetuximab (FaDu cells [3]): 2 fold | Median time to RTV4 (HCC827 tumor): 114 days | effect of anoxia on sensitivity (FaDu cells [4]): unaffected by anoxia | IC50 lower than cetuximab (FaDu cells [4]; after anoxic exposure): 13 fold | AUC(0-inf) (in vivo [5]): 20000 ng·h/mL | tumor outcome [6]: unable to prevent tumor progression | Median Survival gain (PC9 tumor; 10 mg/kg Erlotinib, reference Control): 9 days | Median time to RTV4 (PC9 tumor; Erlotinib 10 mg/kg Qdx21 p.o.): 39 days

Structure (SMILES): CN(C)C/C=C/C(=O)Nc1cc2c(Nc3ccc(Cl)c(Br)c3)ncnc2cn1 [TH-4000E]
sensitivity, oxia- vs hypoxia-preconditioned cells (EGFR signalling): comparable | concentration completely silencing pERK expression (pERK): ≥ 0.12 μM | dose potency relative to cetuximab (FaDu cells [3]): 150 fold | lower IC50 value than erlotinib (FaDu cells [3]): 80 fold | T½β of released TKI in PC9 tumors [7]: 84 h | concentration completely silencing pEGFR (Y1068) expression (pEGFR (Y1068); 1 h drug, EGF 50 ng/mL 15 min): ≥ 0.12 μM | pEGFR expression completely silenced up to (pEGFR (Y1068); lowest concentration of 3-fold dilutions): 0.041 μM | AUC(0-inf) (in vivo [8]): 106 ng·h/mL | half-life (in vivo [8]): 1.28 h | Cmax (in vivo [8]; Cmax obs): 47 ± 3.6 ng/mL | Cmax (in vivo [8]; Cmax pred): 50 ng/mL | dose-potency relative to erlotinib (IC50) (FaDu cells [4]): 1400 fold | concentration largely silencing pAkt expression (pAkt): above 0.12 μM | dose potency relative to TH-4000 [9]: approximately 28 fold | dose potency relative to cetuximab [9]: at least 250 fold
